For one assay, the target named is JH2 domain of human Tyk2 (Homo sapiens (Human), UniProt P29597). Put plainly: JH2 Biochemical Assay (TR-FRET probe displacement). Type of assay: binding. Background: Time-resolved FRET reads energy transfer from a long-lived donor to a nearby acceptor.
The next assay concerns the target Tyk2 (Homo sapiens (Human), UniProt P29597). Put plainly: pSTAT4 Cell Assay (MSD, NK92 cells). It counts as cell-based. The note with it: MSD.
The target in a further assay is JAK2 (Homo sapiens (Human), UniProt O60674). Put plainly: pSTAT5 Cell Assay (MSD, TF1 cells). Type of assay: cell-based. The note with it: MSD. Summed up:
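Serum-starved TF1 cells were pretreated with compound for 1 h (10-point four-fold series from 10 μM), then stimulated with 30 ng/mL IL-3 for 15 min. pSTAT5 in lysates was measured by MSD immunoassay. IC50 came from a 4-parameter logistic fit.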

The next assay deals with JAK1 (Homo sapiens (Human), UniProt P23458). Description: pSTAT3 Cell Assay (MSD, TF1 cells). It counts as cell-based. Particulars: MSD. A digest of the protocol: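 IC50 values derive from 4-parameter logistic fits of normalized pSTAT3 signal, measured by MSD with anti-STAT3 antibodies. TF1 cells, serum-starved beforehand, received compound for 1 hour (top concentration 10 μM, four-fold steps, 10 points) before a 15-minute IL-6 (30 ng/mL) stimulus.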
JAK1, sequence (P23458 whole entry): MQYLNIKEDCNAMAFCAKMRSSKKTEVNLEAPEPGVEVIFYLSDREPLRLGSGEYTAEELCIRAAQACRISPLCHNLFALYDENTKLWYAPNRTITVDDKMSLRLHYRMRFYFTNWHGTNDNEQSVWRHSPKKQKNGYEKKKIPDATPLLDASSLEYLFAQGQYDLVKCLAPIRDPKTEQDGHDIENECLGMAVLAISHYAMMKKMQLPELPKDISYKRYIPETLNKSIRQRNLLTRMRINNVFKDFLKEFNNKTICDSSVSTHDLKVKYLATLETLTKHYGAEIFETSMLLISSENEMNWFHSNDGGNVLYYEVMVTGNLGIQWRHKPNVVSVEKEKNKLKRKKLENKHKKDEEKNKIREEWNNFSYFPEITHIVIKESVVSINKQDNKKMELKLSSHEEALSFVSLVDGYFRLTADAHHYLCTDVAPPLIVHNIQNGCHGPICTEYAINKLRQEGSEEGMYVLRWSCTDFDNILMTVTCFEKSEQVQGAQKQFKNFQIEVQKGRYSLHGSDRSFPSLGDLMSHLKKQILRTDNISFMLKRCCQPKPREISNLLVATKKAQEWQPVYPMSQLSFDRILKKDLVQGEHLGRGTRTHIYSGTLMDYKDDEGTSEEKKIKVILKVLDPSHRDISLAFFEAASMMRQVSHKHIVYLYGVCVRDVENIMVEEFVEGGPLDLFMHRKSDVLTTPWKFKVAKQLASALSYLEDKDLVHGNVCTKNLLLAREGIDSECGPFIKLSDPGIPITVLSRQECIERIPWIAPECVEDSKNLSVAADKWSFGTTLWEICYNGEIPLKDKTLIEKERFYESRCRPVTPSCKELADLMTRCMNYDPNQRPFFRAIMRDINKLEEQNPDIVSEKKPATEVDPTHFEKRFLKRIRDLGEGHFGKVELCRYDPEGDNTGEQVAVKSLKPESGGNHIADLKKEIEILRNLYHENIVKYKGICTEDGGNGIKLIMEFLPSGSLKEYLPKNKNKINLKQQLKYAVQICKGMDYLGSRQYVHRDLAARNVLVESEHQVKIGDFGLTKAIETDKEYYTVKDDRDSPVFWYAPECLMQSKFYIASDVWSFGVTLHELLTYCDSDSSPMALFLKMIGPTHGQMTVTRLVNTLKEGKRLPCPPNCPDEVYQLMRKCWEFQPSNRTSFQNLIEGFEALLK

The mark [1] stands for this setting: JH2 domain of human Tyk2, TR-FRET probe displacement.
[2] abbreviates: TR-FRET probe displacement, JH2 domain of human Tyk2.

JAK2, sequence (O60674 whole entry): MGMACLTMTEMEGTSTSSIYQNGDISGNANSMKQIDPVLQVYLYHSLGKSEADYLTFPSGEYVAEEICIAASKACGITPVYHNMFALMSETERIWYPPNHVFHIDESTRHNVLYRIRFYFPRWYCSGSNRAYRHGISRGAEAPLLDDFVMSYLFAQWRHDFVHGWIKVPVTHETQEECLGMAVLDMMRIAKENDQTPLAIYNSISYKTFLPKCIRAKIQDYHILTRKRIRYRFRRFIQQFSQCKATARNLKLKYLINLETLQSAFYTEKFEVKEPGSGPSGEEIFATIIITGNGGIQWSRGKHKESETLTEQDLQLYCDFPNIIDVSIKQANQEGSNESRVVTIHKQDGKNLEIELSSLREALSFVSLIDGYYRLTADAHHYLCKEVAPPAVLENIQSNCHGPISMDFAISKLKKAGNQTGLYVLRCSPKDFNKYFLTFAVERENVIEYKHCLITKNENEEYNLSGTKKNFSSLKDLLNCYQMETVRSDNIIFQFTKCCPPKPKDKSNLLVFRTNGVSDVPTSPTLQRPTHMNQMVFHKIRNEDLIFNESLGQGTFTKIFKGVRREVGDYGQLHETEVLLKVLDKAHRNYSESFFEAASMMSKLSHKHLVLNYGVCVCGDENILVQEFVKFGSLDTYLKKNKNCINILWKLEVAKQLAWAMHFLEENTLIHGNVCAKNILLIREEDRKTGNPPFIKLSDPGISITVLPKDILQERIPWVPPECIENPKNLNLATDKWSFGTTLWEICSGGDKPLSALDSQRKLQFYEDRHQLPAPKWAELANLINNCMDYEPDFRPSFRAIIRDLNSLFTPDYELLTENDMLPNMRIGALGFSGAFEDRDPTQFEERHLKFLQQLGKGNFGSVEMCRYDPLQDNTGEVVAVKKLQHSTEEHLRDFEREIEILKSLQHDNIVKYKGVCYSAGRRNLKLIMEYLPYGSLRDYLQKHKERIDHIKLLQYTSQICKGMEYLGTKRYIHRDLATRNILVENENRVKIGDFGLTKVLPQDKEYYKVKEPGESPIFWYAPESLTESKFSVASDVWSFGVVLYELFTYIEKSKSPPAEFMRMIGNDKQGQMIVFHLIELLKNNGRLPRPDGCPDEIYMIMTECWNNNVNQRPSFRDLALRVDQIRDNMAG
Tyk2, sequence (P29597 whole entry): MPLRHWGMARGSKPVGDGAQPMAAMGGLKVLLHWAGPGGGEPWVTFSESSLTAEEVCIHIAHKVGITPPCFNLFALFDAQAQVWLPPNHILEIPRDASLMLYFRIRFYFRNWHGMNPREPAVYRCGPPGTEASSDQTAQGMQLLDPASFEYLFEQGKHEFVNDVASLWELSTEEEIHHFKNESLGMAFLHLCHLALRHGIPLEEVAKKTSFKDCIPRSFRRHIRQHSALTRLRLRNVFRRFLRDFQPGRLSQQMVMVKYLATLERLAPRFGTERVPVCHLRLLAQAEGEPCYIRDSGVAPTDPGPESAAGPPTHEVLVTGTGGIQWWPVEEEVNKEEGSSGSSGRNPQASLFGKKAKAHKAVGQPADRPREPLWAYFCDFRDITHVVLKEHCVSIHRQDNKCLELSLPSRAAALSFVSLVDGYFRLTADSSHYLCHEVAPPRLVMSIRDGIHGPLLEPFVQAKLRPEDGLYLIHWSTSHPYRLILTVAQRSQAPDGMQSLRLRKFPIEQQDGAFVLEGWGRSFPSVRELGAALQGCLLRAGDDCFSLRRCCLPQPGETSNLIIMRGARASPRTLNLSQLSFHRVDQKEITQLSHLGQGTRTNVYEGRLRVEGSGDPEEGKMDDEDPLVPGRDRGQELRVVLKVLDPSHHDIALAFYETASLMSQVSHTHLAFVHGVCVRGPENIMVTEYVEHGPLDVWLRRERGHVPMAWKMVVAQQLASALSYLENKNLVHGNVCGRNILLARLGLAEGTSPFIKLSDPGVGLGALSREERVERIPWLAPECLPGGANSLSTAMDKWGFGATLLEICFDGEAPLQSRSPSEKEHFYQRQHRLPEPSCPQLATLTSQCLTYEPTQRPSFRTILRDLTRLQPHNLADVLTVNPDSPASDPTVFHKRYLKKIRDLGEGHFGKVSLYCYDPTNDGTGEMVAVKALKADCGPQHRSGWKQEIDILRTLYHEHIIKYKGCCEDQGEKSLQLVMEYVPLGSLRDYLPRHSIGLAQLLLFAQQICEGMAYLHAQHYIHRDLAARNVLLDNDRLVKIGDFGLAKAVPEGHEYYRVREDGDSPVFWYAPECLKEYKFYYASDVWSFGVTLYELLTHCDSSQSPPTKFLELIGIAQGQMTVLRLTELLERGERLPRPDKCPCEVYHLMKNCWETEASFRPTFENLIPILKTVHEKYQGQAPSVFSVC
JH2 domain of human Tyk2, sequence (P29597 575-876): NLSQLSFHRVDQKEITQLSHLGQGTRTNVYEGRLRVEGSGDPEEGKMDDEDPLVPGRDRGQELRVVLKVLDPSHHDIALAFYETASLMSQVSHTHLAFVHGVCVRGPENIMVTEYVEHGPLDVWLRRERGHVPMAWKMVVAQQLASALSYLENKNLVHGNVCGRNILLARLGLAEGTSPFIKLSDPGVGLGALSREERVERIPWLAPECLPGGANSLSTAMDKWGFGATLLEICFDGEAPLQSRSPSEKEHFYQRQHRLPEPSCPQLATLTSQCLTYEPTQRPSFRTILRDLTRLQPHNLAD

In general, IC50 refers to the concentration that inhibits the measured activity by half. Higher therefore signals lower potency. Consider `CC(=O)Nc1cc(Nc2cc(C)nc(C(C)(F)F)n2)c(-c2ccc(CN(C)C)cn2)cn1` [Example 648, N-(4′-((2-(1,1-difluoroethyl)-6-methylpyrimidin-4-yl)amino)-5-((dimethylamino)methyl)-[2,3′-bipyridin]-6′-yl)acetamide], for which the IC50 on JH2 domain of human Tyk2 (setting [1]) was not above 10 nM; on Tyk2, not above 10 nM; against JAK2 (IL-3 stimulated) it was not below 1000 nM; on JAK1 (IL-6 stimulated) it was not below 1000 nM.

For `CC(=O)Nc1cc(Nc2cc(C)nc(C(C)(F)F)n2)c(-c2cc3n(n2)CCN(C)C3)cn1` [Example 226, N-(4-((2-(1,1-difluoroethyl)-6-methylpyrimidin-4-yl)amino)-5-(5-methyl-4,5,6,7-tetrahydropyrazolo[1,5-a]pyrazin-2-yl)pyridin-2-yl)acetamide], the IC50 at JH2 domain of human Tyk2 (setting [2]) was not above 10 nM; at Tyk2, not above 10 nM; against JAK2 (IL-3 stimulation) it was not below 1000 nM; against JAK1 (IL-6 stimulation), 100 to 1000 nM.

For the molecule `CC(=O)Nc1cc(Nc2cc(C)nc(C(C)(F)F)n2)c(-c2ccn(C3CC3)n2)cn1` [Example 602, N-(5-(1-cyclopropyl-1H-pyrazol-3-yl)-4-((2-(1,1-difluoroethyl)-6-methylpyrimidin-4-yl)amino)pyridin-2-yl)acetamide], the IC50 at JH2 domain of human Tyk2 (setting [1]) was not above 10 nM; against Tyk2, not above 10 nM; against JAK2 (IL-3 stimulated) it was not below 1000 nM; against JAK1 (IL-6 stimulated), not below 1000 nM.

As to `CC(=O)Nc1cc(Nc2cc(C)nc(C(C)(F)F)n2)c(-c2ccncn2)cn1` [Example 270, N-(4-((2-(1,1-difluoroethyl)-6-methylpyrimidin-4-yl)amino)-5-(pyrimidin-4-yl)pyridin-2-yl)acetamide], the concentration for half-maximal inhibition (IC50) at JH2 domain of human Tyk2 (setting [2]) is not above 10 nM; on Tyk2 it was not above 10 nM; against JAK2 (IL-3 stimulation), not below 1000 nM; on JAK1 (IL-6 stimulation), not below 1000 nM.

For `CCOc1cnc(NC(C)=O)cc1Nc1cc(-c2cnn(CC)c2)nc(C(C)(F)F)n1` [Example 311, N-(4-((2-(1,1-difluoroethyl)-6-(1-ethyl-1H-pyrazol-4-yl)pyrimidin-4-yl)amino)-5-ethoxypyridin-2-yl)acetamide], the IC50 on JH2 domain of human Tyk2 (setting [2]) is not above 10 nM; against Tyk2 it was 10 to 100 nM; on JAK2 (IL-3 stimulation) it was not below 1000 nM; on JAK1 (IL-6 stimulation) it was not below 1000 nM.

`CCOc1cnc(NC(C)=O)cc1Nc1cc(-c2cnn(C3CC3)c2)nc(C(C)(F)F)n1` [Example 304, N-(4-((6-(1-cyclopropyl-1H-pyrazol-4-yl)-2-(1,1-difluoroethyl)pyrimidin-4-yl)amino)-5-ethoxypyridin-2-yl)acetamide]: the 50% inhibitory concentration (IC50) at JH2 domain of human Tyk2 (setting [2]) was not above 10 nM; against Tyk2 it was not above 10 nM; against JAK2 (IL-3 stimulation), not below 1000 nM; on JAK1 (IL-6 stimulation), not below 1000 nM.

For `CC(=O)Nc1cc(Nc2ccnc(C(C)(F)F)n2)c(-c2ccc(C#N)cn2)cn1` [Example 146, N-(5-cyano-4′-((2-(1,1-difluoroethyl)pyrimidin-4-yl)amino)-[2,3′-bipyridin]-6′-yl)acetamide], the IC50 was not above 10 nM on JH2 domain of human Tyk2 (setting [2]), not above 10 nM against Tyk2, not below 1000 nM against JAK2 (IL-3 stimulation) and not below 1000 nM against JAK1 (IL-6 stimulation).

For the molecule `CC(=O)Nc1cc(Nc2ccnc(C(C)(F)F)n2)c(-c2cnn(C(C)C)n2)cn1` [Example 708, N-(4-((2-(1,1-difluoroethyl)pyrimidin-4-yl)amino)-5-(2-isopropyl-2H-1,2,3-triazol-4-yl)pyridin-2-yl)acetamide], the concentration for half-maximal inhibition (IC50) at JH2 domain of human Tyk2 (setting [1]) was not above 10 nM; against Tyk2, not above 10 nM; at JAK2 (IL-3 stimulated), not below 1000 nM; on JAK1 (IL-6 stimulated) it was not below 1000 nM.

Consider `COc1cnc(NC(C)=O)cc1Nc1cc(O[C@H]2C[C@H](OC)C2)nc(C(C)(F)F)n1` [Example 19, N-(4-((2-(1,1-difluoroethyl)-6-((1r,3r)-3-methoxycyclobutoxy)pyrimidin-4-yl)amino)-5-methoxypyridin-2-yl)acetamide], for which the 50% inhibitory concentration (IC50) on JH2 domain of human Tyk2 (setting [2]) was not above 10 nM; on Tyk2, 10 to 100 nM; against JAK2 (IL-3 stimulation), not below 1000 nM; at JAK1 (IL-6 stimulation), not below 1000 nM.

`CCOc1cnc(NC(C)=O)cc1Nc1cccc(C(C)(F)F)n1` [Example 1, N-(4-((6-(1,1-difluoroethyl)pyridin-2-yl)amino)-5-ethoxypyridin-2-yl)acetamide]: the half-inhibitory concentration (IC50) on JH2 domain of human Tyk2 (setting [2]) was not above 10 nM; on Tyk2, not above 10 nM; on JAK2 (IL-3 stimulation), not below 1000 nM; against JAK1 (IL-6 stimulation), not below 1000 nM.

Regarding `CC(=O)Nc1cc(Nc2cc(C)nc(C(C)(F)F)n2)c(-c2ncc(C#N)cn2)cn1` [Example 655, N-(5-(5-cyanopyrimidin-2-yl)-4-((2-(1,1-difluoroethyl)-6-methylpyrimidin-4-yl)amino)pyridin-2-yl)acetamide], the half-maximal inhibitory concentration (IC50) at JH2 domain of human Tyk2 (setting [1]) was not above 10 nM; against Tyk2, 10 to 100 nM; at JAK2 (IL-3 stimulated), not below 1000 nM; against JAK1 (IL-6 stimulated), not below 1000 nM.

Consider `COCCOc1cnc(NC(C)=O)cc1Nc1cc(OC)nc(C(C)(F)F)n1` [Example 21, N-(4-((2-(1,1-difluoroethyl)-6-methoxypyrimidin-4-yl)amino)-5-(2-methoxyethoxy)pyridin-2-yl)acetamide], for which the IC50 was not above 10 nM on JH2 domain of human Tyk2 (setting [2]), 10 to 100 nM at Tyk2, not below 1000 nM at JAK2 (IL-3 stimulation) and not below 1000 nM against JAK1 (IL-6 stimulation).

In the case of `CC(=O)Nc1cc(Nc2cc(C)nc(C(C)(F)F)n2)c(OC[C@H]2C[C@H]2F)cn1` (racemic) [Example 425, Cis-rac-N-(4-((2-(1,1-difluoroethyl)-6-methylpyrimidin-4-yl)amino)-5-((2-fluorocyclopropyl)methoxy)pyridin-2-yl)acetamide], the 50% inhibitory concentration (IC50) at JH2 domain of human Tyk2 (setting [1]) is not above 10 nM; against Tyk2, not above 10 nM; against JAK2 (IL-3 stimulated) it was not below 1000 nM; at JAK1 (IL-6 stimulated), not below 1000 nM.

Regarding `COCCOc1cnc(NC(C)=O)cc1Nc1cc(C)nc(C(C)(F)F)n1` [Example 22, N-(4-((2-(1,1-difluoroethyl)-6-methylpyrimidin-4-yl)amino)-5-(2-methoxyethoxy)pyridin-2-yl)acetamide], the half-maximal inhibitory concentration (IC50) on JH2 domain of human Tyk2 (setting [2]) is not above 10 nM; against Tyk2 it was not above 10 nM; at JAK2 (IL-3 stimulation), not below 1000 nM; at JAK1 (IL-6 stimulation), not below 1000 nM.

In the case of `CCc1cc(Nc2cc(NC(C)=O)ncc2-c2ncccn2)nc(C(C)(F)F)n1` [Example 719, N-(4-((2-(1,1-difluoroethyl)-6-ethylpyrimidin-4-yl)amino)-5-(pyrimidin-2-yl)pyridin-2-yl)acetamide], the half-maximal inhibitory concentration (IC50) on JH2 domain of human Tyk2 (setting [1]) was not above 10 nM; at Tyk2, not above 10 nM; against JAK2 (IL-3 stimulated), not below 1000 nM; on JAK1 (IL-6 stimulated), not below 1000 nM.

For `COCCOc1cc(Nc2cc(NC(C)=O)ncc2OC)nc(C(C)(F)F)n1` [Example 37, N-(4-((2-(1,1-difluoroethyl)-6-(2-methoxyethoxy)pyrimidin-4-yl)amino)-5-methoxypyridin-2-yl)acetamide], the half-maximal inhibitory concentration (IC50) was not above 10 nM on JH2 domain of human Tyk2 (setting [2]), 100 to 1000 nM at Tyk2, not below 1000 nM on JAK2 (IL-3 stimulation) and not below 1000 nM on JAK1 (IL-6 stimulation).

As to `COCCOc1ccc(-c2cnc(NC(C)=O)cc2Nc2cc(C)nc(C(C)(F)F)n2)nc1` [Example 522, N-(4′-((2-(1,1-difluoroethyl)-6-methylpyrimidin-4-yl)amino)-5-(2-methoxyethoxy)-[2,3′-bipyridin]-6′-yl)acetamide], the half-maximal inhibitory concentration (IC50) on JH2 domain of human Tyk2 (setting [1]) was not above 10 nM; on Tyk2 it was not above 10 nM; at JAK2 (IL-3 stimulated) it was not below 1000 nM; on JAK1 (IL-6 stimulated), not below 1000 nM.

The values are drawn from patent US20260028365A1 (BIOGEN MA INC., priority 2022, published 2026).
